These results are taken from patent publication US9000175B2, “Bicyclic GPR119 modulators” (Lupin Limited, priority 2010, dated 2015).

Where “and” joins values, the source holds several entries; their conditions need not be identical. Equal entries are not always repeated.

The assay deals with T1, human GPR119 (Homo sapiens, UniProt Q8TDV5).
T1 construct: expressed in transfected cells
T1 sequence (Q8TDV5 1-335): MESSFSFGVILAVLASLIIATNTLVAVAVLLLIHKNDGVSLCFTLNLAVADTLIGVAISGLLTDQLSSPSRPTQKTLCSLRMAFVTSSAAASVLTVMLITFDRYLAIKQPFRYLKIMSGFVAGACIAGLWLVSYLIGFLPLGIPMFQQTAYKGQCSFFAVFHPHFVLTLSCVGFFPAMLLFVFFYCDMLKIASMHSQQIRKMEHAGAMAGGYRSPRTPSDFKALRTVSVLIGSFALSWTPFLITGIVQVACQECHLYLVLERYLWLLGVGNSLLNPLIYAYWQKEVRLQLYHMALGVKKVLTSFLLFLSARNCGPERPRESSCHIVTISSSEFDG
Kind of assay: Cyclic AMP assay in stable cell line. Format: cell-based. The note with it: CHO-K1 cells stably transfected with human GPR119; cAMP levels (FRET, cAMP femto kit); 1 h at 37° C; read-out: EC50 Range. How it is done: Cyclic AMP Assay in Stable Cell Line:
Chinese Hamster Ovary (CHO-K1) cells were stably transfected with human GPR119 and were maintained in Ham's F-12 complete medium containing 10% heat inactivated FBS (Sigma, UK). The cells were maintained under a selection pressure with 500 μg/ml G418 (GENETICIN). Stable clones were analyzed for functional cAMP response to OEA (oleoylethanolamide).
To estimate activation of GPR119 and induction of cAMP levels by GPR119 agonists, cells were serum starvation for 18-24 h, trypsinized and seeded in 96 well plates at a, density of 7500 cells/well. The cells were then treated with test compounds diluted in serum free Ham's F12 for 1 h at 37° C. The cAMP levels were measured by using the cAMP femto kit (CisBio) by following the manufacturer's instructions. Following treatment with a test compound, the cells were lysed and cAMP levels were estimated by adding D2-labelled cAMP and europium-cryptate conjugated anti-cAMP antibody. Close proximity of D2 and cryptate results in FRET and the subsequent fluorescence that is measured at 665 and 620 nm. The FRET response is calculated as the ratio of fluorescence at 665 to fluorescence at 620 nm. The unlabelled cAMP produced as a result of GPR119 activation/agonism competes with the D2-cAMP leading to a decrease in the FRET signal. Thus the FRET signal is inversely proportional to the amount of cAMP produced by the treated cells. In a separate set of wells, known concentrations of cAMP were added in order to get a standard linear curve for extrapolation of the cAMP values in the unknown/test samples. Fluorescence was measured on BMG Labtech PHERAstar machine.
The concentration of compound required to stimulate a half-maximal response (EC50) was determined using the GraphPad Prism software.
The compounds prepared were tested using the above assay procedure and the results obtained are given below.
A general note: Cyclic AMP is a second messenger, typically raised through Gs and lowered through Gi signalling.
Regarding `CCc1cnc(N2CCC(OCc3ccc(-n4ccc5cc(S(C)(=O)=O)ccc54)nc3)CC2)nc1` [Example-42, 1-(5-(((1-(5-Ethylpyrimidin-2-yl)piperidin-4-yl)oxy)methyl)pyridin-2-yl)-5-(methylsulfonyl)-1H-indole], the EC50 (as a rule, the concentration that produces a half-maximal response) was in the range of 50 to 250 nM.
Take `CCc1cnc(N2CCC(Oc3ccc(-n4ccc5cc(CNC(=O)C(C)C)ccc54)nc3)CC2)nc1` [Example-98, N-((1-(5-((1-(5-Ethylpyrimidin-2-yl)piperidin-4-yl)oxy)pyridin-2-yl)-1H-indol-5-yl)methyl)isobutyramide]: the EC50 is less than 50 nM.
For `CC(C)CN1CCC(Oc2ccc(-n3ccc4cc(S(C)(=O)=O)ccc43)nc2)CC1` [Example-30, 1-(5-((1-Isobutylpiperidin-4-yl)oxy)pyridin-2-yl)-5-(methylsulfonyl)-1H-indole], the concentration giving a half-maximal response (EC50) is < 50 nM and 50 to 250 nM.
Turning to `CCc1cnc(N2CCC(Oc3ccc(-n4ccc5cc(C(=O)NC6CC6)ccc54)nc3)CC2)nc1` [Example-54, N-Cyclopropyl-1-(5-((1-(5-ethylpyrimidin-2-yl)piperidin-4-yl)oxy)pyridin-2-yl)-1H-indole-5-carboxamide], the 50% effective concentration (EC50) was less than 50 nM.
On to `CC(C)(C)OC(=O)N1CCC(Oc2ccc(-n3ccc4cc(S(C)(=O)=O)ccc43)nc2)CC1` [Example-1, tert-Butyl-4-((6-(5-(methylsulfonyl)-1H-indol-1-yl)pyridin-3-yl)oxy) piperidine-1-carboxylate], for which the EC50 was less than 50 nM.
`CCc1cnc(N2CCC(COc3ccc(-n4ccc5cc(S(C)(=O)=O)ccc54)nc3)CC2)nc1` [Example-6, 1-(5-((1-(5-Ethylpyrimidin-2-yl)piperidin-4-yl)methoxy)pyridin-2-yl)-5-(methylsulfonyl)-1H-indole]: the EC50 was less than 50 nM.
On to `CCOC(=O)Nc1ccc2c(ccn2-c2ccc(OC3CCN(c4nc(C(C)C)no4)CC3)cn2)c1` [Example-141, Ethyl(1-(5-((1-(3-isopropyl-1,2,4-oxadiazol-5-yl)piperidin-4-yl)oxy)pyridin-2-yl)-1H-indol-5-yl)carbamate], for which the 50% effective concentration (EC50) is less than 50 nM.
For the compound `CCOC(=O)Nc1ccc2c(ccn2-c2ccc(OC3CCN(C(=O)OC(C)(C)C)CC3)cn2)c1` [Example-8, tert-Butyl-4-((6-(5-((ethoxycarbonyl)amino)-1H-indol-1-yl)pyridin-3-yl)oxy)piperidine-1-carboxylate], the EC50 is less than 50 nM.
As to `CCc1cnc(N2CCC(Oc3ccc(-n4ccc5cc(NC(=O)C(C)C)ccc54)nc3)CC2)nc1` [Example-123, N-(1-(5-((1-(5-Ethylpyrimidin-2-yl)piperidin-4-yl)oxy)pyridin-2-yl)-1H-indol-5-yl)isobutyramide], the half-maximal effective concentration (EC50) was less than 50 nM.
`CCOC(=O)N1CCC(OCc2ccc(-n3ccc4cc(S(C)(=O)=O)ccc43)nc2)CC1` [Example-107, Ethyl 4-((6-(5-(methylsulfonyl)-1H-indol-1-yl)pyridin-3-yl)methoxy) piperidine-1-carboxylate]: the EC50 was 250 to 1000 nM.
With `CC(C)NC(=O)c1ccc2c(c1)CCN2c1ccc(OC2CCN(C(=O)OC(C)(C)C)CC2)cn1` [Example-136, tert-Butyl-4-((6-(5-(isopropylcarbamoyl)indolin-1-yl)pyridin-3-yl)-oxy) piperidine-1-carboxylate], the EC50 was less than 50 nM.
Regarding `CCc1cnc(N2CCC(Nc3ccc(-n4ccc5cc(S(C)(=O)=O)ccc54)nc3)CC2)nc1` [Example-119, N-(1-(5-Ethylpyrimidin-2-yl)piperidin-4-yl)-6-(5-(methylsulfonyl)-1H-indol-1-yl)pyridin-3-amine], the EC50 lay within 50 to 250 nM.
Regarding `CCc1cnc(N2CCC(Oc3ccc(-n4ccc5cc(NC(=O)OC(C)C)ccc54)nc3)CC2)nc1` [Example-132, Isopropyl(1-(5-((1-(5-ethylpyrimidin-2-yl)piperidin-4-yl)oxy)pyridin-2-yl)-1H-indol-5-yl)carbamate], the concentration for a half-maximal effect (EC50) was less than 50 nM.
With `CCc1cnc(N2CCC(Oc3ccc(-n4ccc5cc(-n6cncn6)ccc54)nc3)CC2)nc1` [Example-190, 1-(5-((1-(5-Ethylpyrimidin-2-yl)piperidin-4-yl)oxy)pyridin-2-yl)-5-(1H-1,2,4-triazol-1-yl)-1H-indole], the 50% effective concentration (EC50) was less than 50 nM.
With `CC(C)(F)CN1CCC(Oc2ccc(-n3ccc4cc(S(C)(=O)=O)ccc43)nc2)CC1` [Example-14, 1-(5-((1-(2-Fluoro-2-methylpropyl)piperidin-4-yl)oxy)pyridin-2-yl)-5-(methylsulfonyl)-1H-indole] the figure was less than 50 nM.
With `CC(C)OC(=O)N1CCC(Oc2ccc(-n3ccc4cc(C(=O)N5CCCC5)ccc43)nc2)CC1` [Example-70, Isopropyl 4-((6-(5-(pyrrolidine-1-carbonyl)-1H-indol-1-yl)pyridin-3-yl)oxy)piperidine-1-carboxylate], the half-maximal effective concentration (EC50) was in the range of 50 to 250 nM.
As to `CC(C)c1noc(CN2CCC(Oc3ccc(-n4ccc5cc(C(=O)N(C)C)ccc54)nc3)CC2)n1` [Example-84], the 50% effective concentration (EC50) is 250 to 1000 nM.
As to `CC(C)(C)OC(=O)N1CCC(Oc2ccc(-n3ccc4cc(S(C)(=O)=O)cc(F)c43)nc2)CC1` [Example-91, tert-Butyl-4-((6-(7-fluoro-5-(methylsulfonyl)-1H-indol-1-yl)pyridin-3-yl)oxy)piperidine-1-carboxylate], the EC50 was less than 50 nM.
Regarding `Cc1noc(N2CCC(Oc3ccc(-n4ccc5cc(S(C)(=O)=O)ccc54)nc3)CC2)n1` [Example-92, 3-Methyl-5-(4-((6-(5-(methylsulfonyl)-1H-indol-1-yl)pyridin-3-yl)oxy)piperidin-1-yl)-1,2,4-oxadiazole], the 50% effective concentration (EC50) was in the range of 50 to 250 nM.
For `CCOC(=O)N1CCC(Oc2ccc(-n3ccc4cc(S(C)(=O)=O)ccc43)nc2)CC1` [Example-185, Ethyl-4-((6-(5-(methylsulfonyl)-1H-indol-1-yl)pyridin-3-yl)oxy)-piperidine-1-carboxylate], the EC50 was in the range of 50 to 250 nM.
Regarding `CC(C)OC(=O)N1CCC(COc2ccc(-n3ccc4cc(NC(=O)C(C)C)ccc43)nc2)CC1` [Example-126, Isopropyl 4-(((6-(5-isobutyramido-1H-indol-1-yl)pyridin-3-yl)oxy)methyl)piperidine-1-carboxylate], the EC50 is < 50 nM and 50 to 250 nM.
Take `CC(C)OC(=O)N1CCC(OCc2ccc(-n3ccc4cc(S(C)(=O)=O)ccc43)nc2)CC1` [Example-108, Isopropyl 4-((6-(5-(methylsulfonyl)-1H-indol-1-yl)pyridin-3-yl)methoxy)piperidine-1-carboxylate]: the concentration for a half-maximal effect (EC50) was 50 to 250 nM.
As to `CC(C)NC(=O)c1ccc2c(ccn2-c2ccc(OC3CCN(C(=O)OC(C)C)CC3)cn2)c1` [Example-72, Isopropyl 4-((6-(5-(isopropylcarbamoyl)-1H-indol-1-yl)pyridin-3-yl)oxy) piperidine-1-carboxylate], the concentration for a half-maximal effect (EC50) was 250 to 1000 nM and 50 to 250 nM.
For `CC(C)(C)OC(=O)N1CCC(COc2ccc(-n3ccc4cc(S(C)(=O)=O)ccc43)nc2)CC1` [Example-5, tert-Butyl-4-(((6-(5-(methylsulfonyl)-1H-indol-1-yl)pyridin-3-yl)oxy)methyl)piperidine-1-carboxylate] the value was less than 50 nM.
For `CCc1cnc(N2CCC(Oc3ccc(-n4cc(C)c5cc(S(C)(=O)=O)ccc54)nc3)CC2)nc1` [Example-168, 1-(5-((1-(5-Ethylpyrimidin-2-yl)piperidin-4-yl)oxy)pyridin-2-yl)-3-methyl-5-(methylsulfonyl)-1H-indole] the value was less than 50 nM.
